Patent US4649198A, “Imidazo(1,5-a)pyrimidine derivatives and their use as antimycotic agents” (Kyorin Pharmaceutical Co., Ltd., priority 1983, dated 1987)
Values after ≈ are worked out from the molar mass of the structure shown.

Experiments:
Test in all cases: antifungal activity, standard agar dilution streak method
Format in all cases: cell-based
[1] = test system: Aspergillus fumigatus MTU-06002; conditions: MTU06002, read-out: Minimum Inhibitory Concentration
Experimental: (§1) The antifungal activity of the compound of the present invention was assayed by the standard agar dilution streak method against fungi.

Candida albicans 3147 = conditions: read-out: Minimum Inhibitory Concentration
Experimental: as §1

[2] = test system: Candida albicans IFO-1388; conditions: IFO1388, read-out: Minimum Inhibitory Concentration
Experimental: as §1

[3] = test system: Candida albicans IFO-1594; conditions: IFO1594, read-out: Minimum Inhibitory Concentration
Experimental: as §1

Candida albicans KYF-602 = conditions: KYF602, read-out: Minimum Inhibitory Concentration
Experimental: as §1

[4] = test system: Candida albicans MTU-12124; conditions: MTU12124, read-out: Minimum Inhibitory Concentration
Experimental: as §1

[5] = test system: Candida stellatidea IFO-1398; conditions: IFO1398, read-out: Minimum Inhibitory Concentration
Experimental: as §1

Microsporum canis 20010 = conditions: read-out: Minimum Inhibitory Concentration
Experimental: as §1

[6] = test system: Trichophyton mentagrophytes MTU-19003; conditions: MTU19003, read-out: Minimum Inhibitory Concentration
Experimental: as §1

[7] = test system: Trichophyton mentagrophytes MTU-19005; conditions: MTU19005, read-out: Minimum Inhibitory Concentration
Experimental: as §1

Compound	MIC [1] [µg/mL]	MIC (Candida albicans 3147) [µg/mL]	MIC [2] [µg/mL]	MIC [3] [µg/mL]	MIC (Candida albicans KYF-602) [µg/mL]	MIC [4] [µg/mL]	MIC [5] [µg/mL]	MIC (Microsporum canis 20010) [µg/mL]	MIC [6] [µg/mL]	MIC [7] [µg/mL]
Clc1ccc(-c2ncc3nc(Cl)cc(Cl)n23)cc1 [Ex. 1, 2,4-dichloro-6-(4-chlorophenyl)imidazo[1,5-a]pyrimidine]	6.25 (≈ 20.9 µM)	6.25 (≈ 20.9 µM)	1.56 (≈ 5.23 µM)	3.13 (≈ 10.5 µM)	6.25 (≈ 20.9 µM)	3.13 (≈ 10.5 µM)	0.2 (≈ 0.67 µM)	0.78 (≈ 2.61 µM)	1.56 (≈ 5.23 µM)	0.78 (≈ 2.61 µM)
Clc1cc(Cl)n2c(C3CCCCC3)ncc2n1 [Ex. 23]	50 (≈ 185 µM)	1.56 (≈ 5.77 µM)	0.2 (≈ 0.74 µM)	0.39 (≈ 1.44 µM)	3.13 (≈ 11.6 µM)	6.25 (≈ 23.1 µM)	3.13 (≈ 11.6 µM)	1.56 (≈ 5.77 µM)	3.13 (≈ 11.6 µM)	1.56 (≈ 5.77 µM)
Clc1cc(Cl)n2c(-c3ccc(Cl)c(Cl)c3)ncc2n1 [Ex. 7]	> 100	1.56 (≈ 4.68 µM)	1.56 (≈ 4.68 µM)	1.56 (≈ 4.68 µM)	3.13 (≈ 9.4 µM)	1.56 (≈ 4.68 µM)	0.39 (≈ 1.17 µM)	0.39 (≈ 1.17 µM)	0.78 (≈ 2.34 µM)	139 (≈ 417 µM)
Clc1ccc(Cc2ncc3nc(Cl)cc(Cl)n23)c(Cl)c1 [Ex. 20]	> 6.25	0.78 (≈ 2.25 µM)	0.78 (≈ 2.25 µM)	0.78 (≈ 2.25 µM)	> 6.25	0.78 (≈ 2.25 µM)	0.2 (≈ 0.576 µM)	0.78 (≈ 2.25 µM)	1.56 (≈ 4.5 µM)	0.78 (≈ 2.25 µM)
Clc1cc(Cl)n2c(-c3ccc(I)cc3)ncc2n1 [Ex. 21]	–	1.56 (≈ 4 µM)	3.13 (≈ 8.03 µM)	6.25 (≈ 16 µM)	> 6.25	1.56 (≈ 4 µM)	1.56 (≈ 4 µM)	–	–	–
Clc1cc(Cl)n2c(-c3ccc(Br)cc3)ncc2n1 [Ex. 5]	6.25 (≈ 18.2 µM)	1.56 (≈ 4.55 µM)	1.56 (≈ 4.55 µM)	3.13 (≈ 9.13 µM)	6.25 (≈ 18.2 µM)	3.13 (≈ 9.13 µM)	0.2 (≈ 0.583 µM)	0.78 (≈ 2.27 µM)	1.56 (≈ 4.55 µM)	0.78 (≈ 2.27 µM)
CC(c1ccccc1)c1ncc2nc(Cl)cc(Cl)n12 (centres unmarked) [Ex. 18]	25 (≈ 85.6 µM)	3.13 (≈ 10.7 µM)	0.78 (≈ 2.67 µM)	3.13 (≈ 10.7 µM)	12.5 (≈ 42.8 µM)	3.13 (≈ 10.7 µM)	3.13 (≈ 10.7 µM)	1.56 (≈ 5.34 µM)	1.56 (≈ 5.34 µM)	1.56 (≈ 5.34 µM)
Clc1ccc(-c2ncc3nc(Cl)cc(Cl)n23)c(Cl)c1 [Ex. 9]	12.5 (≈ 37.5 µM)	1.56 (≈ 4.68 µM)	0.78 (≈ 2.34 µM)	3.13 (≈ 9.4 µM)	6.25 (≈ 18.8 µM)	1.56 (≈ 4.68 µM)	0.78 (≈ 2.34 µM)	1.56 (≈ 4.68 µM)	1.56 (≈ 4.68 µM)	0.78 (≈ 2.34 µM)
Clc1ccc(Cc2ncc3nc(Cl)cc(Cl)n23)cc1 [Ex. 16]	3.13 (≈ 10 µM)	1.56 (≈ 4.99 µM)	1.56 (≈ 4.99 µM)	1.56 (≈ 4.99 µM)	3.13 (≈ 10 µM)	6.25 (≈ 20 µM)	0.78 (≈ 2.5 µM)	0.39 (≈ 1.25 µM)	1.56 (≈ 4.99 µM)	0.2 (≈ 0.64 µM)
